Earlier results in US6464981B2, “Therapeutic agent for a cancer and method of screening the same, and health-care auxiliary food” (Orient Cancer Therapy Co., LTD, priority 2000, dated 2002).

Test system: cancer-carrying mice

CCCCCCCCCCCCCCCCCCCCCCCCCC(=O)N[C@@H](CO[C@H]1O[C@H](CO)[C@H](O)[C@H](O)[C@H]1O)[C@H](O)[C@H](O)CCCCCCCCCCCCCC [α-galactosylceramide]
activation of NKT cells: NKT cells are activated
elimination of cancer: elimination of cancer is not observed
metastasis of the cancer: metastasis of the cancer is suppressed
